Laboratory results as given in ChEMBL document CHEMBL1201862, “PubChem BioAssay data set” (2004).
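Method: 48-hour compound exposure of cells in 96-well plates, five concentrations, linear interpolation of endpoints. GI50: concentration for 50% inhibition of growth.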 Calls of active or inactive are those of the source. No stated cut-off is given here; in the data, active = GI50 up to about 1.1 µM and inactive = higher.

Columns and labels:
Test in all cases: NCI tumour cell line growth inhibition, 48 h
SNB-75 = system: SNB-75
XF498 = system: XF498
RXF 393 = system: RXF 393
Malme-3M = system: Malme-3M
SF-268 = system: SF-268
LOX IMVI = system: LOX IMVI
HT-29 = system: HT-29
DLD-1 = system: DLD-1
SN12C = system: SN12C
NCI-H226 = system: NCI-H226
SK-OV-3 = system: SK-OV-3
SK-MEL-28 = system: SK-MEL-28
SF-295 = system: SF-295
TK-10 = system: TK-10
CCRF-CEM = system: CCRF-CEM
M19-MEL = system: M19-MEL
HOP-62 = system: HOP-62
UACC-62 = system: UACC-62
U-251 = system: U-251
NCI-H23 = system: NCI-H23
DMS-114 = system: DMS-114
UACC-257 = system: UACC-257
SR = system: SR
ACHN = system: ACHN
K562 = system: K562
786-0 = system: 786-0
SF-539 = system: SF-539
HCT-15 = system: HCT-15
LXFL 529 = system: LXFL 529
SK-MEL-2 = system: SK-MEL-2
MOLT-4 = system: MOLT-4
OVCAR-8 = system: OVCAR-8
NCI-H522 = system: NCI-H522
HCC 2998 = system: HCC 2998
HCT-116 = system: HCT-116
EKVX = system: EKVX
OVCAR-3 = system: OVCAR-3
OVCAR-5 = system: OVCAR-5
DMS-273 = system: DMS-273
HOP-92 = system: HOP-92
M14 = system: M14
SNB-78 = system: SNB-78
HL-60 = system: HL-60
SK-MEL-5 = system: SK-MEL-5
KM12 = system: KM12
SW-620 = system: SW-620
RPMI-8226 = system: RPMI-8226
NCI-H460 = system: NCI-H460
OVCAR-4 = system: OVCAR-4
IGROV-1 = system: IGROV-1
SNB-19 = system: SNB-19
A549 = system: A549
UO-31 = system: UO-31
COLO 205 = system: COLO 205

`COc1ccc2c3c(c(C(=O)O)oc13)CCC2` was tested, and the GI50 (SNB-75) was 29.1 µM (inactive), the GI50 (XF498) was > 100 µM (inactive) and the GI50 (RXF 393) was > 100 µM (inactive). For the same compound, the GI50 (Malme-3M) was > 100 µM (inactive), the GI50 (SF-268) was > 100 µM (inactive) and the GI50 (LOX IMVI) was > 100 µM (inactive). For the same compound, the GI50 (HT-29) was > 100 µM (inactive), the GI50 (DLD-1) was > 100 µM (inactive) and the GI50 (SN12C) was > 100 µM (inactive). For the same compound, the GI50 (NCI-H226) was 18.2 µM (inactive), the GI50 (SK-OV-3) was > 100 µM (inactive) and the GI50 (SK-MEL-28) was > 100 µM (inactive). For the same compound, the GI50 (SF-295) was > 100 µM (inactive), the GI50 (TK-10) was > 100 µM (inactive) and the GI50 (CCRF-CEM) was > 100 µM (inactive). For the same compound, the GI50 (M19-MEL) was > 100 µM (inactive), the GI50 (HOP-62) was > 100 µM (inactive) and the GI50 (UACC-62) was > 100 µM (inactive). The GI50 (U-251) was > 100 µM (inactive), the GI50 (NCI-H23) was > 100 µM (inactive) and the GI50 (DMS-114) was > 100 µM (inactive). For the same compound, the GI50 (UACC-257) was > 100 µM (inactive), the GI50 (SR) was > 100 µM (inactive) and the GI50 (ACHN) was > 100 µM (inactive). For the same compound, the GI50 (K562) was > 100 µM (inactive), the GI50 (786-0) was > 100 µM (inactive) and the GI50 (SF-539) was > 100 µM (inactive). For the same compound, the GI50 (HCT-15) was > 100 µM, the GI50 (LXFL 529) was > 100 µM (inactive) and the GI50 (SK-MEL-2) was > 100 µM (inactive). The GI50 (MOLT-4) was > 100 µM (inactive), the GI50 (OVCAR-8) was > 100 µM (inactive) and the GI50 (NCI-H522) was > 100 µM (inactive). For the same compound, the GI50 (HCC 2998) was > 100 µM (inactive), the GI50 (HCT-116) was > 100 µM (inactive) and the GI50 (EKVX) was > 100 µM (inactive). For the same compound, the GI50 (OVCAR-3) was > 100 µM (inactive), the GI50 (OVCAR-5) was > 100 µM (inactive) and the GI50 (DMS-273) was > 100 µM (inactive). For the same compound, the GI50 (HOP-92) was > 100 µM (inactive), the GI50 (M14) was > 100 µM (inactive) and the GI50 (SNB-78) was > 100 µM (inactive). For the same compound, the GI50 (HL-60) was > 100 µM (inactive), the GI50 (SK-MEL-5) was > 100 µM (inactive) and the GI50 (KM12) was > 100 µM (inactive). For the same compound, the GI50 (SW-620) was > 100 µM (inactive), the GI50 (RPMI-8226) was > 100 µM (inactive) and the GI50 (NCI-H460) was > 100 µM (inactive). For the same compound, the GI50 (OVCAR-4) was > 100 µM (inactive), the GI50 (IGROV-1) was > 100 µM (inactive) and the GI50 (SNB-19) was > 100 µM (inactive). For the same compound, the GI50 (A549) was > 100 µM (inactive), the GI50 (UO-31) was 40.7 µM (inactive) and the GI50 (COLO 205) was > 100 µM (inactive).
